Tested on: A549
Assay: Antiproliferative activity against human A549 cells incubated for 72 hrs by sulforhodamine B assay
Type: functional, cell-based
Details: A549, 72 h
`CCOC(=O)N[C@H]1CCc2c(Cl)c(OC)c(OC)c(OC)c2-c2ccc(SC)c(=O)cc21` showed an IC50 of 8 nM. `CCCCOC(=O)N[C@H]1CCc2c(Cl)c(OC)c(OC)c(OC)c2-c2ccc(SC)c(=O)cc21` gave an IC50 of 20 nM. With `COc1c(Cl)c2c(c(OC)c1OC)-c1ccc(SC)c(=O)cc1[C@@H](NC(=O)OCCO)CC2` the IC50 was 40 nM. `COc1c(Cl)c2c(c(OC)c1OC)-c1ccc(SC)c(=O)cc1[C@@H](NC(=O)C(C)C)CC2` gave an IC50 of 2 nM. Compound `CCC(=O)N[C@H]1CCc2c(Cl)c(OC)c(OC)c(OC)c2-c2ccc(SC)c(=O)cc21` has an IC50 of 2 nM. Compound `CCCCCCCCCC(=O)N[C@H]1CCc2c(Cl)c(OC)c(OC)c(OC)c2-c2ccc(SC)c(=O)cc21` has an IC50 of 78 nM.

Tested on: MCF7
Assay: Antiproliferative activity against human MCF7 cells incubated for 72 hrs by sulforhodamine B assay
Type: functional, cell-based
Details: MCF7, 72 h
Compound `CCOC(=O)N[C@H]1CCc2c(Cl)c(OC)c(OC)c(OC)c2-c2ccc(SC)c(=O)cc21` has an IC50 of 8 nM. `CCCCOC(=O)N[C@H]1CCc2c(Cl)c(OC)c(OC)c(OC)c2-c2ccc(SC)c(=O)cc21` showed an IC50 of 20 nM. In the case of `COc1c(Cl)c2c(c(OC)c1OC)-c1ccc(SC)c(=O)cc1[C@@H](NC(=O)OCCO)CC2`, the IC50 is reported as 40 nM. With `COc1c(Cl)c2c(c(OC)c1OC)-c1ccc(SC)c(=O)cc1[C@@H](NC(=O)C(C)C)CC2` the IC50 was 2 nM. `CCC(=O)N[C@H]1CCc2c(Cl)c(OC)c(OC)c(OC)c2-c2ccc(SC)c(=O)cc21` showed an IC50 of 2 nM. Work on `CCCCCCCCCC(=O)N[C@H]1CCc2c(Cl)c(OC)c(OC)c(OC)c2-c2ccc(SC)c(=O)cc21` yielded an IC50 of 78 nM.

Tested on: LoVo
Assay: Antiproliferative activity against human LoVo cells incubated for 72 hrs by sulforhodamine B assay
Type: functional, cell-based
Details: not given
In the case of `COc1c(Br)c2c(c(OC)c1OC)-c1ccc(SC)c(=O)cc1[C@@H](NC(C)=O)CC2`, the IC50 is reported as 14 nM. `CCOC(=O)N[C@H]1CCc2c(Cl)c(OC)c(OC)c(OC)c2-c2ccc(SC)c(=O)cc21` gave an IC50 of 8 nM. With `CCCCOC(=O)N[C@H]1CCc2c(Cl)c(OC)c(OC)c(OC)c2-c2ccc(SC)c(=O)cc21` the IC50 was 20 nM. For `COc1c(Cl)c2c(c(OC)c1OC)-c1ccc(SC)c(=O)cc1[C@@H](NC(=O)OCCO)CC2`, the IC50 was 40 nM. With `COc1c(Cl)c2c(c(OC)c1OC)-c1ccc(SC)c(=O)cc1[C@@H](NC(=O)C(C)C)CC2` the IC50 was 2 nM. With `CCC(=O)N[C@H]1CCc2c(Cl)c(OC)c(OC)c(OC)c2-c2ccc(SC)c(=O)cc21` the IC50 was 2 nM. `CCCCCCCCCC(=O)N[C@H]1CCc2c(Cl)c(OC)c(OC)c(OC)c2-c2ccc(SC)c(=O)cc21` showed an IC50 of 78 nM.

Tested on: not listed separately
Assay: Antiproliferative activity against human LoVo/DX cells incubated for 72 hrs by sulforhodamine B assay
Type: functional, cell-based
Details: not given
Work on `COc1c(Br)c2c(c(OC)c1OC)-c1ccc(SC)c(=O)cc1[C@@H](NC(C)=O)CC2` yielded an IC50 of 135 nM. In the case of `CCOC(=O)N[C@H]1CCc2c(Cl)c(OC)c(OC)c(OC)c2-c2ccc(SC)c(=O)cc21`, the IC50 is reported as 8 nM. `CCCCOC(=O)N[C@H]1CCc2c(Cl)c(OC)c(OC)c(OC)c2-c2ccc(SC)c(=O)cc21` gave an IC50 of 20 nM. `COc1c(Cl)c2c(c(OC)c1OC)-c1ccc(SC)c(=O)cc1[C@@H](NC(=O)OCCO)CC2` gave an IC50 of 40 nM. With `COc1c(Cl)c2c(c(OC)c1OC)-c1ccc(SC)c(=O)cc1[C@@H](NC(=O)C(C)C)CC2` the IC50 was 2 nM. Compound `CCC(=O)N[C@H]1CCc2c(Cl)c(OC)c(OC)c(OC)c2-c2ccc(SC)c(=O)cc21` has an IC50 of 2 nM. Work on `CCCCCCCCCC(=O)N[C@H]1CCc2c(Cl)c(OC)c(OC)c(OC)c2-c2ccc(SC)c(=O)cc21` yielded an IC50 of 78 nM.

Tested on: BALB/3T3
Assay: Cytotoxicity against mouse BALB/3T3 cells incubated for 72 hrs by sulforhodamine B assay
Type: cell-based
Details: BALB/3T3, 72 h
Work on `CCOC(=O)N[C@H]1CCc2c(Cl)c(OC)c(OC)c(OC)c2-c2ccc(SC)c(=O)cc21` yielded an IC50 of 8 nM. For `CCCCOC(=O)N[C@H]1CCc2c(Cl)c(OC)c(OC)c(OC)c2-c2ccc(SC)c(=O)cc21`, the IC50 was 20 nM. For `COc1c(Cl)c2c(c(OC)c1OC)-c1ccc(SC)c(=O)cc1[C@@H](NC(=O)OCCO)CC2`, the IC50 was 40 nM. Compound `COc1c(Cl)c2c(c(OC)c1OC)-c1ccc(SC)c(=O)cc1[C@@H](NC(=O)C(C)C)CC2` has an IC50 of 2 nM. `CCC(=O)N[C@H]1CCc2c(Cl)c(OC)c(OC)c(OC)c2-c2ccc(SC)c(=O)cc21` gave an IC50 of 2 nM. `CCCCCCCCCC(=O)N[C@H]1CCc2c(Cl)c(OC)c(OC)c(OC)c2-c2ccc(SC)c(=O)cc21` gave an IC50 of 78 nM.

Tested on: not listed separately
Assay: Antiproliferative activity against human ALL5 cells incubated for 120 hrs by MTT assay
Type: functional, cell-based
Details: ALL5, 120 h
In the case of `COc1c(Cl)c2c(c(OC)c1OC)-c1ccc(SC)c(=O)cc1[C@@H](NC(=O)C(C)C)CC2`, the IC50 is reported as 2 nM. With `CCC(=O)N[C@H]1CCc2c(Cl)c(OC)c(OC)c(OC)c2-c2ccc(SC)c(=O)cc21` the IC50 was 2 nM. Work on `CCCCCCCCCC(=O)N[C@H]1CCc2c(Cl)c(OC)c(OC)c(OC)c2-c2ccc(SC)c(=O)cc21` yielded an IC50 of 78 nM.

Tested on: P388
Assay: Antiproliferative activity against mouse P388 cells incubated for 72 hrs by Coulter counter method
Type: functional, cell-based
Details: P388, 72 h
`CCNc1ccc2c(cc1=O)[C@@H](NC(C)=O)CCc1cc(OC)c(OC)c(OC)c1-2` gave an IC50 of 29 nM. Compound `COc1cc2c(c(OC)c1OC)-c1ccc(NN(C)C)c(=O)cc1[C@@H](NC(C)=O)CC2` has an IC50 of 25 nM. `CCCCNc1ccc2c(cc1=O)[C@@H](NC(C)=O)CCc1cc(OC)c(OC)c(OC)c1-2` showed an IC50 of 240 nM. `COc1cc2c(c(OC)c1OC)-c1ccc(NC(C)C)c(=O)cc1[C@@H](NC(C)=O)CC2` showed an IC50 of 48 nM. In the case of `COc1cc2c(c(OC)c1OC)-c1ccc(NCC(C)C)c(=O)cc1[C@@H](NC(C)=O)CC2`, the IC50 is reported as 320 nM.
